The text below walks through data of ChEMBL document CHEMBL2010715, “Verrulactones A and B, new inhibitors of Staphylococcus aureus enoyl-ACP reductase produced by Penicillium verruculosum F375” (Bioorg Med Chem Lett, 2012).

Values after ≈ are worked out from the molar mass of the structure shown. Active and inactive are the calls of the source. The calls are words filed in the database; no cut-off is given here.

By MIC is commonly meant the lowest concentration found to suppress growth. The term IC50 denotes the midpoint of a concentration-inhibition curve.

The test system of assay [1] is Staphylococcus aureus. In words: Antibacterial activity against Staphylococcus aureus RN4220. Format: functional.
Assay [2] has as its system Staphylococcus aureus. In words: Antibacterial activity against methicillin-resistant Staphylococcus aureus CCARM 3167. Format: functional.
The next assay concerns Pseudomonas aeruginosa. In words: Antibacterial activity against Pseudomonas aeruginosa KCTC 2004. Type of assay: functional, organism-based.
The test system of the next assay is Bacillus cereus. Briefly: Antibacterial activity against Bacillus cereus KCTC 1661. Type of assay: functional.
The next assay relates to Escherichia coli. Briefly: Antibacterial activity against Escherichia coli KCTC 1683. Type of assay: functional, organism-based.
For assay [3], the system named is Staphylococcus aureus. In words: (§1) Inhibition of Staphylococcus aureus Fab1.
Assay [4] can be described thus: as §1.

Take `COc1cc(O)c2c(=O)oc3cc(O)c(O)c(-c4c(O)c(O)cc5oc(=O)c6c(O)cc(OC)cc6c45)c3c2c1` [VERRULACTONE A]: the minimal inhibitory concentration (MIC) in the assay with Staphylococcus aureus [1], against Staphylococcus aureus [2] and in the assay on Bacillus cereus was 8 µg/mL (≈ 14.6 µM) in each case. Besides, the result with Pseudomonas aeruginosa and with Escherichia coli was inactive. Besides, the inhibition entry in the assay on Staphylococcus aureus [3] was “Dose-dependent effect”. In assay [4], this molecule registered an IC50 of 920 nM.

On to `COc1cc(O)c2c(=O)oc3c(-c4c(O)c(O)cc5oc(=O)c6c(O)cc(OC)cc6c45)c(O)c(O)cc3c2c1` [VERRULACTONE B], for which the MIC in the assay with Staphylococcus aureus [1] and in the assay on Staphylococcus aureus [2] was 16 µg/mL (≈ 29.3 µM) in each case. The same molecule had an IC50 in assay [4] of 1410 nM.
